In US6355799B1, “Substituted benzene compounds, process for their preparation, and herbicidal and defoliant compositions containing them” (ISK Americas Incorporated, priority 1997, dated 2002):

Assays:
Assay type in all cases: in vivo
[1] = tested on: redroot pigweed (Amaranthus retroflexus, AMARE); assay: Pre-emerge test, greenhouse herbicide activity screening; conditions: for Pre-emerge Herbicidal Activity AMARE: phytotoxicity rating 0-100, 14 days after application; for phytotoxicity rating AMARE: pre-emerge, 14 days after application, scale 0-100
Outline: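 Sandy loam pots; pre-emerge: sown 1 d pre-spray, surface-watered after, then bottom-watered. Post-emerge: sown 8–21 d before, 2–3 leaf stage, + 0.25% v/v NIS, bottom-watered. Acetone, 187 l/ha track spray, 15–1000 g ai/ha. 0–100 injury score, day 14.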

[2] = tested on: barnyardgrass (Echinochloa crus-galli, ECHCG); assay: as above; conditions: for Pre-emerge Herbicidal Activity ECHCG: phytotoxicity rating 0-100, 14 days after application; for phytotoxicity rating ECHCG: pre-emerge, 14 days after application, scale 0-100
Outline: (§1)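 Herbicidal damage is scored 0 (none) to 100 (complete plant death) two weeks after a simulated field spray. Rates span 15–1000 g ai/ha, delivered in acetone at 187 l/ha. For post-emergence treatments, plants have 2–3 leaves and the spray carries 0.25% v/v non-ionic surfactant.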

[3] = tested on: green foxtail (Setaria viridis, SETVI); assay: as above; conditions: for Pre-emerge Herbicidal Activity SETVI: phytotoxicity rating 0-100, 14 days after application; for phytotoxicity rating SETVI: pre-emerge, 14 days after application, scale 0-100
Outline: as §1

[4] = tested on: ivyleaf morningglory (Ipomoea hederacea, IPOHE); assay: as above; conditions: for Pre-emerge Herbicidal Activity IPOHE: phytotoxicity rating 0-100, 14 days after application; for phytotoxicity rating IPOHE: pre-emerge, 14 days after application, scale 0-100
Outline: as §1

[5] = tested on: johnsongrass (Sorghum halepense, SORHA); assay: as above; conditions: for Pre-emerge Herbicidal Activity SORHA: phytotoxicity rating 0-100, 14 days after application; for phytotoxicity rating SORHA: pre-emerge, 14 days after application, scale 0-100
Outline: as §1

[6] = tested on: lambsquarters (Chenopodium album, CHEAL); assay: as above; conditions: for Pre-emerge Herbicidal Activity CHEAL: phytotoxicity rating 0-100, 14 days after application; for phytotoxicity rating CHEAL: pre-emerge, 14 days after application, scale 0-100
Outline: as §1

[7] = tested on: large crabgrass (Digitaria sanguinalis, DIGSA); assay: as above; conditions: for Pre-emerge Herbicidal Activity DIGSA: phytotoxicity rating 0-100, 14 days after application; for phytotoxicity rating DIGSA: pre-emerge, 14 days after application, scale 0-100
Outline: as §1

[8] = tested on: sicklepod (Cassia obtusifolia, CASOB); assay: as above; conditions: for Pre-emerge Herbicidal Activity CASOB: phytotoxicity rating 0-100, 14 days after application; for phytotoxicity rating CASOB: pre-emerge, 14 days after application, scale 0-100
Outline: as §1

[9] = tested on: velvetleaf (Abutilon theophrasti, ABUTH); assay: as above; conditions: for Pre-emerge Herbicidal Activity ABUTH: phytotoxicity rating 0-100, 14 days after application; for phytotoxicity rating ABUTH: pre-emerge, 14 days after application, scale 0-100
Outline: as §1

[10] = tested on: field corn (Zea mays L., var. Dekalb 535, CORN); assay: Pre-emerge test, crop safety; conditions: for Pre-emerge Herbicidal Activity CORN: crop damage rating 0-100, 14 days after application; for phytotoxicity rating CORN (crop damage): pre-emerge, 14 days after application, scale 0-100
Outline: as §1

[11] = tested on: upland rice (Oryza sp., var. Tebonnet, RICE); assay: Pre-emerge test, crop safety; conditions: for Pre-emerge Herbicidal Activity RICE: crop damage rating 0-100, 14 days after application; for phytotoxicity rating RICE (crop damage): pre-emerge, 14 days after application, scale 0-100
Outline: as §1

[12] = tested on: barnyardgrass (Echinochloa crus-galli, ECHCG); assay: Post-emerge test, greenhouse herbicide activity screening; conditions: post-emerge, 14 days after application, rating scale 0-100
Outline: (§2)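 Visual ratings on a 0-100 scale (0 no damage, 100 all plants dead) were taken at 14 days after treatment. Rates of 15-1000 g ai/ha in acetone, 187 l/ha, were sprayed onto soil one day after planting (pre-emerge) or onto 2-3 leaf plants with 0.25% v/v surfactant (post-emerge).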

[13] = tested on: green foxtail (Setaria viridis, SETVI); assay: as above; conditions: post-emerge, 14 days after application, rating scale 0-100
Outline: as §2

[14] = tested on: ivyleaf morningglory (Ipomoea hederacea, IPOHE); assay: as above; conditions: post-emerge, 14 days after application, rating scale 0-100
Outline: as §2

[15] = tested on: johnsongrass (Sorghum halepense, SORHA); assay: as above; conditions: post-emerge, 14 days after application, rating scale 0-100
Outline: as §2

[16] = tested on: lambsquarters (Chenopodium album, CHEAL); assay: as above; conditions: post-emerge, 14 days after application, rating scale 0-100
Outline: as §2

[17] = tested on: large crabgrass (Digitaria sanguinalis, DIGSA); assay: as above; conditions: post-emerge, 14 days after application, rating scale 0-100
Outline: as §2

[18] = tested on: redroot pigweed (Amaranthus retroflexus, AMARE); assay: as above; conditions: post-emerge, 14 days after application
Outline: as §2

[19] = tested on: sicklepod (Cassia obtusifolia, CASOB); assay: as above; conditions: post-emerge, 14 days after application, rating scale 0-100
Outline: as §2

[20] = tested on: velvetleaf (Abutilon theophrasti, ABUTH); assay: as above; conditions: post-emerge, 14 days after application, rating scale 0-100
Outline: as §2

[21] = tested on: field corn (Zea mays L., var. Dekalb 535, CORN); assay: Post-emerge test, crop safety; conditions: post-emerge, 14 days after application, rating scale 0-100
Outline: as §1

[22] = tested on: upland rice (Oryza sp., var. Tebonnet, RICE); assay: Post-emerge test, crop safety; conditions: post-emerge, 14 days after application, rating scale 0-100
Outline: as §1

## COc1c(Cl)cc(F)c(-n2c(=O)cc(C(F)(F)F)n(C)c2=O)c1NC(=O)OCc1ccc(Cl)c(Cl)c1 [4-32]
[1]; 63 g ai/ha
  Pre-emerge Herbicidal Activity AMARE: 50
[1]; 250 g ai/ha
  Pre-emerge Herbicidal Activity AMARE: 100
[2]; 63 g ai/ha
  Pre-emerge Herbicidal Activity ECHCG: 0
[2]; 250 g ai/ha
  Pre-emerge Herbicidal Activity ECHCG: 50
[3]; 63 g ai/ha
  Pre-emerge Herbicidal Activity SETVI: 30
[3]; 250 g ai/ha
  Pre-emerge Herbicidal Activity SETVI: 95
[4]; 63 g ai/ha
  Pre-emerge Herbicidal Activity IPOHE: 0
[4]; 250 g ai/ha
  Pre-emerge Herbicidal Activity IPOHE: 40
[5]; 63 g ai/ha
  Pre-emerge Herbicidal Activity SORHA: 0
[5]; 250 g ai/ha
  Pre-emerge Herbicidal Activity SORHA: 30
[6]; 63 g ai/ha
  Pre-emerge Herbicidal Activity CHEAL: 80
[6]; 250 g ai/ha
  Pre-emerge Herbicidal Activity CHEAL: 100
[7]; 63 g ai/ha
  Pre-emerge Herbicidal Activity DIGSA: 20
[7]; 250 g ai/ha
  Pre-emerge Herbicidal Activity DIGSA: 80
[8]; 63 g ai/ha
  Pre-emerge Herbicidal Activity CASOB: 0
[8]; 250 g ai/ha
  Pre-emerge Herbicidal Activity CASOB: 30
[9]; 63 g ai/ha
  Pre-emerge Herbicidal Activity ABUTH: 0
[9]; 250 g ai/ha
  Pre-emerge Herbicidal Activity ABUTH: 70
[10]; 63 g ai/ha
  Pre-emerge Herbicidal Activity CORN: 0
[10]; 250 g ai/ha
  Pre-emerge Herbicidal Activity CORN: 10
[11]; 63 g ai/ha
  Pre-emerge Herbicidal Activity RICE: 0
[11]; 250 g ai/ha
  Pre-emerge Herbicidal Activity RICE: 30
[12]; 63 g ai/ha
  phytotoxicity rating ECHCG: 0
[12]; 250 g ai/ha
  phytotoxicity rating ECHCG: 20
[13]; 63 g ai/ha
  phytotoxicity rating SETVI: 30
[13]; 250 g ai/ha
  phytotoxicity rating SETVI: 50
[14]; 63 g ai/ha
  phytotoxicity rating IPOHE: 100
[14]; 250 g ai/ha
  phytotoxicity rating IPOHE: 100
[15]; 63 g ai/ha
  phytotoxicity rating SORHA: 10
[15]; 250 g ai/ha
  phytotoxicity rating SORHA: 30
[16]; 63 g ai/ha
  phytotoxicity rating CHEAL: 100
[16]; 250 g ai/ha
  phytotoxicity rating CHEAL: 100
[17]; 63 g ai/ha
  phytotoxicity rating DIGSA: 10
[17]; 250 g ai/ha
  phytotoxicity rating DIGSA: 20
[18]; 63 g ai/ha, rating scale 0-100 (0 no damage, 100 complete death)
  phytotoxicity rating AMARE: 100
[18]; 250 g ai/ha, rating scale 0-100
  phytotoxicity rating AMARE: 100
[19]; 63 g ai/ha
  phytotoxicity rating CASOB: 80
[19]; 250 g ai/ha
  phytotoxicity rating CASOB: 80
[20]; 63 g ai/ha
  phytotoxicity rating ABUTH: 90
[20]; 250 g ai/ha
  phytotoxicity rating ABUTH: 100
[21]; 63 g ai/ha
  phytotoxicity rating CORN (crop damage): 20
[21]; 250 g ai/ha
  phytotoxicity rating CORN (crop damage): 30
[22]; 63 g ai/ha
  phytotoxicity rating RICE (crop damage): 20
[22]; 250 g ai/ha
  phytotoxicity rating RICE (crop damage): 40

## COc1c(Cl)cc(F)c(-n2c(=O)cc(C(F)(F)F)n(C)c2=O)c1NC(=O)c1cc2ccccc2cc1C [2-155]
[1]; 63 g ai/ha
  phytotoxicity rating AMARE: 100
[1]; 125 g ai/ha
  phytotoxicity rating AMARE: 100
[2]; 63 g ai/ha
  phytotoxicity rating ECHCG: 50
[2]; 125 g ai/ha
  phytotoxicity rating ECHCG: 70
[3]; 63 g ai/ha
  phytotoxicity rating SETVI: 60
[3]; 125 g ai/ha
  phytotoxicity rating SETVI: 95
[4]; 63 g ai/ha
  phytotoxicity rating IPOHE: 0
[4]; 125 g ai/ha
  phytotoxicity rating IPOHE: 40
[5]; 63 g ai/ha
  phytotoxicity rating SORHA: 30
[5]; 125 g ai/ha
  phytotoxicity rating SORHA: 70
[6]; 63 g ai/ha
  phytotoxicity rating CHEAL: 100
[6]; 125 g ai/ha
  phytotoxicity rating CHEAL: 100
[7]; 63 g ai/ha
  phytotoxicity rating DIGSA: 85
[7]; 125 g ai/ha
  phytotoxicity rating DIGSA: 100
[8]; 63 g ai/ha
  phytotoxicity rating CASOB: 0
[8]; 125 g ai/ha
  phytotoxicity rating CASOB: 30
[9]; 63 g ai/ha
  phytotoxicity rating ABUTH: 100
[9]; 125 g ai/ha
  phytotoxicity rating ABUTH: 100
[10]; 63 g ai/ha
  phytotoxicity rating CORN (crop damage): 0
[10]; 125 g ai/ha
  phytotoxicity rating CORN (crop damage): 15
[11]; 63 g ai/ha
  phytotoxicity rating RICE (crop damage): 30
[11]; 125 g ai/ha
  phytotoxicity rating RICE (crop damage): 60
[12]; 63 g ai/ha
  ECHCG phytotoxicity rating: 30
[12]; 125 g ai/ha
  ECHCG phytotoxicity rating: 60
[13]; 63 g ai/ha
  SETVI phytotoxicity rating: 50
[13]; 125 g ai/ha
  SETVI phytotoxicity rating: 70
[14]; 63 g ai/ha
  IPOHE phytotoxicity rating: 100
[14]; 125 g ai/ha
  IPOHE phytotoxicity rating: 100
[15]; 63 g ai/ha
  SORHA phytotoxicity rating: 30
[15]; 125 g ai/ha
  SORHA phytotoxicity rating: 50
[16]; 63 g ai/ha
  CHEAL phytotoxicity rating: 100
[16]; 125 g ai/ha
  CHEAL phytotoxicity rating: 100
[17]; 63 g ai/ha
  DIGSA phytotoxicity rating: 40
[17]; 125 g ai/ha
  DIGSA phytotoxicity rating: 50
[18]; 63 g ai/ha, rating scale 0-100
  AMARE phytotoxicity rating: 100
[18]; 125 g ai/ha, rating scale 0-100
  AMARE phytotoxicity rating: 100
[19]; 63 g ai/ha
  CASOB phytotoxicity rating: 100
[19]; 125 g ai/ha
  CASOB phytotoxicity rating: 100
[20]; 63 g ai/ha
  ABUTH phytotoxicity rating: 100
[20]; 125 g ai/ha
  ABUTH phytotoxicity rating: 100
[21]; 63 g ai/ha
  CORN phytotoxicity rating (crop damage): 70
[21]; 125 g ai/ha
  CORN phytotoxicity rating (crop damage): 90
[22]; 63 g ai/ha
  RICE phytotoxicity rating (crop damage): 25
[22]; 125 g ai/ha
  RICE phytotoxicity rating (crop damage): 80
